Assay results from patent US12201656B2, “Selection of bacterial strains useful in allergy treatment” (BioGaia AB, priority 2016, dated 2025).

System: phosphorylated PKC (pPKC)
Assay: Mouse enteroid experiment, pPKC Western blot
Assay type: cell-based
Details: DGK inhibitor 2 μM in the presence of wild-type L. reuteri PTA-6475 conditioned media, 45 min
Description: FIGS. 5a and 5b illustrate that a commercially available DagK inhibitor (DGK inhi) prevents L. reuteri derived-DagK mediated protein kinase C (PKC) phosphorylation in mouse enteroids. FIG. 5a illustrates a Western blot analysis showing proteins isolated from mouse ileal enteroids of 10 week-old germ free (GF) male mice treated with only media control (LDM-4), WT Lr (WT Lr grown in LDM4), DagK inhibitor and DagK inhibitor with WT Lr for 45 min targeting mammalian phosphorylated PKC (pPKC). 10 μg proteins were loaded into each well of an SDS gel. The pPKC synthesis ratio was obtained by image-J analysis where pPKC of […] was set to 1 and used as baseline. FIG. 5b Mean values of n=3 showing pPKC protein concentration (loaded 10 μg) and quantified by densitometry using image-J. GF control groups were set to 1. *P<0.05, **P<0.01, ***P<0.001. n=10 mice per group. One-Way analysis of variance with Bonferroni correction.
Mouse enteroids (contains only intestinal epithelial layer) were derived from 10 week-old germ free (GF) BALB/c mouse. The enteroids were grown to form a monolayer and were induced with LDM4 media (control), wild-type L. reuteri PTA-6475 conditioned media (50 to 3 kDa cut off), diacylglycerol kinase (DGK) inhibitor (2 μM) only or DGK inhibitor (2 μM) with wild-type L. reuteri PTA-6475 conditioned media (CM; 50 to 3 kDa cut off). […]

Structure (SMILES): Cc1nc2sccn2c(=O)c1CCN1CCC(=C(c2ccccc2)c2ccc(F)cc2)CC1 [DGK inhibitor, 6-[2-(4-[(4-fluorophenyl)phenylmethylene]-1-piperidinyl)ethyl]-7-methyl-5H-thiazolo-[3,2-a]pyrimidine-5-one]
- PKC phosphorylation: increased PKC phosphorylation
